The source of these data is patent publication US20230339865A1, “QUINAZOLINE-DERIVED HCK INHIBITORS FOR USE IN THE TREATMENT OF MYD88 MUTATED DISEASES” (Dana-Farber Cancer Institute, Inc., priority 2020, published 2023).

The nature of series [1]: microsome stability (human). To be noted: microsomes, read-out: microsome stability (T1/2, min). The class given is in vitro ADME. As for the experimental part:
(§1) The compounds were tested against several different cell lines, and the ED50 values determined, along with the microsome stability.

In another series the target is T1, LYN A (Homo sapiens, UniProt P07948).
T1 construct: purchased Invitrogen
The series is described as follows: Invitrogen kinase assay LYN A. The class given is biochemical. The protocol:
(§2) The IC50 values were also determined for Compound (I-1) using an Invitrogen kinase assay. The results are shown in Table 2, along with comparison data with TL2-059.

The target in another series is T2, ABL2 (Arg) (Homo sapiens, UniProt P42684).
T2 construct: purchased Invitrogen
The experiment in a line: Invitrogen kinase assay ABL2 (Arg). Type of series: biochemical. As for the experimental part: as §2

For another series, the target named is T3, MAP4K2 (GCK) (Homo sapiens, UniProt Q12851).
T3 construct: purchased Invitrogen
The experiment in a line: Invitrogen kinase assay MAP4K2 (GCK). The class given is biochemical. The protocol:
as §2

A short description of series [2]: microsome stability (mouse). Type of series: in vitro ADME. The following applies: microsomes, read-out: microsome stability (T1/2, min). The protocol: as §1
Series [3] addresses T4, HCK (Homo sapiens, UniProt P08631). The series is described as follows: Invitrogen kinase assay HCK. The class given is biochemical. More on the design: purchased Invitrogen. The protocol: as §2
Another series has as its target T5, FGR (Homo sapiens, UniProt P09769).
T5 construct: purchased Invitrogen
The experiment in a line: Invitrogen kinase assay FGR. Type of series: biochemical. The protocol:
as §2

Series [4] can be described thus: microsome stability (rat). Type of series: in vitro ADME. To be noted: microsomes, read-out: microsome stability (T1/2, min). As for the experimental part: as §1
The target in the next series is T6, MAP4K1 (HPK1) (Homo sapiens, UniProt Q92918).
T6 construct: purchased Invitrogen
The experiment in a line: Invitrogen kinase assay MAP4K1 (HPK1). The class given is biochemical. As for the experimental part:
as §2

In the next series the target is T7, TAOK2 (TAO1) (Homo sapiens, UniProt Q9UL54).
T7 construct: purchased Invitrogen
The series is described as follows: Invitrogen kinase assay TAOK2 (TAO1). The class given is biochemical. As for the experimental part: as §2

The test system of series [5] is healthy donor B- and T-cells. The experiment in a line: Effect on healthy donor B- and T-cells. The class given is cell-based.
Series [6] relates to MYD88 mutated WM and ABC DLBCL cell lines, primary WM cells. The series is described as follows: Apoptotic effects in MYD88 mutated cells. To be noted: vs. ibrutinib or A419259. Type of series: cell-based.
Another series addresses T8, TAOK3 (JIK) (Homo sapiens, UniProt Q9H2K8).
T8 construct: purchased Invitrogen
The experiment in a line: Invitrogen kinase assay TAOK3 (JIK). The class given is biochemical. As for the experimental part:
as §2

Series [7] concerns MYD88 mutated ABC DLBCL TMD8 xenograft. The series is described as follows: In-vivo rat efficacy study in MYD88 mutated ABC DLBCL TMD8 xenografted rats. As for the experimental part:
Example 1. In-Vivo Rat Efficacy Study in MYD88 Mutated ABC DLBCL TMD8 Xenografted Rats
A rat efficacy study for was carried out with Compound (I-1) using an MYD88 mutated ABC DLBCL TMD8 xenografted rat model.

In series [8] the target is T9, MAP3K7/MAP3K7IP1 (TAK1-TAB1) (Homo sapiens, UniProt O43318).
T9 construct: purchased Invitrogen
The series is described as follows: Invitrogen kinase assay MAP3K7/MAP3K7IP1 (TAK1-TAB1). The class given is biochemical. As for the experimental part: as §2

The next series concerns HCK, BTK, and NFκB. The experiment in a line: Pharmacodynamic studies in mice. Type of series: in vivo.
Series [9] concerns the target T10, MAPK14 (p38 alpha) Direct (Homo sapiens, UniProt Q16539).
T10 construct: purchased Invitrogen
The series is described as follows: Invitrogen kinase assay MAPK14 (p38 alpha) Direct. Type of series: biochemical. As for the experimental part:
as §2

For a further series, the target named is T11, FES (FPS) (Homo sapiens, UniProt P07332).
T11 construct: purchased Invitrogen
The series is described as follows: Invitrogen kinase assay FES (FPS). Type of series: biochemical. As for the experimental part: as §2

For the next series, the target named is T12, SRC (Homo sapiens, UniProt P12931).
T12 construct: purchased Invitrogen
The series is described as follows: Invitrogen kinase assay SRC. Type of series: biochemical. The protocol: as §2

A further series has as its target T13, FYN (Homo sapiens, UniProt P06241).
T13 construct: purchased Invitrogen
The series is described as follows: Invitrogen kinase assay FYN. The class given is biochemical. As for the experimental part:
as §2

For another series, the target named is T14, TAOK1 (Homo sapiens, UniProt Q7L7X3).
T14 construct: purchased Invitrogen
The experiment in a line: Invitrogen kinase assay TAOK1. Type of series: biochemical. The protocol: as §2

The target of a further series is T15, LCK (Homo sapiens, UniProt P06239).
T15 construct: purchased Invitrogen
The experiment in a line: Invitrogen kinase assay LCK. The class given is biochemical. The protocol:
as §2

The next series has as its target T16, ABL1 (Homo sapiens, UniProt P00519).
T16 construct: purchased Invitrogen
The series is described as follows: Invitrogen kinase assay ABL1. The class given is biochemical. The protocol: as §2

Series [10] deals with T4, HCK. The series is described as follows: HCK inhibition in MYD88 mutated cells. The class given is cell-based. The following applies: MYD88 mutated WM and ABC DLBCL cell lines and primary WM cells.
In the next series the target is T17, FER (Homo sapiens, UniProt P16591).
T17 construct: purchased Invitrogen
The series is described as follows: Invitrogen kinase assay FER. Type of series: biochemical. As for the experimental part: as §2

Each structure is given as a SMILES string.

T4 sequence (P08631 whole entry): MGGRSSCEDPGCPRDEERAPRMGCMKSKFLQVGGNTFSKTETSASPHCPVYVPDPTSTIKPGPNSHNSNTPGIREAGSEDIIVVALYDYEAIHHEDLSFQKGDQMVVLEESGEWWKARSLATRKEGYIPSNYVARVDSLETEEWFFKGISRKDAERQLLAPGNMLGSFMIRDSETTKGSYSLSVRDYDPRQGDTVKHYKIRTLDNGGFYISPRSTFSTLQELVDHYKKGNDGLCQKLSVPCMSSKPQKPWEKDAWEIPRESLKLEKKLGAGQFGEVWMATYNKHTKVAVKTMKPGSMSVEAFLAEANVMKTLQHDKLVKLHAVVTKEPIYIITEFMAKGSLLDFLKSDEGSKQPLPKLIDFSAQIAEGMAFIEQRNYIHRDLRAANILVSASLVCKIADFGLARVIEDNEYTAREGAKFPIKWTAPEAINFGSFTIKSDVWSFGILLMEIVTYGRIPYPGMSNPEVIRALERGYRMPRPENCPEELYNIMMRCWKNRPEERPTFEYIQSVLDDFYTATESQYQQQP
T5 sequence (P09769 whole entry): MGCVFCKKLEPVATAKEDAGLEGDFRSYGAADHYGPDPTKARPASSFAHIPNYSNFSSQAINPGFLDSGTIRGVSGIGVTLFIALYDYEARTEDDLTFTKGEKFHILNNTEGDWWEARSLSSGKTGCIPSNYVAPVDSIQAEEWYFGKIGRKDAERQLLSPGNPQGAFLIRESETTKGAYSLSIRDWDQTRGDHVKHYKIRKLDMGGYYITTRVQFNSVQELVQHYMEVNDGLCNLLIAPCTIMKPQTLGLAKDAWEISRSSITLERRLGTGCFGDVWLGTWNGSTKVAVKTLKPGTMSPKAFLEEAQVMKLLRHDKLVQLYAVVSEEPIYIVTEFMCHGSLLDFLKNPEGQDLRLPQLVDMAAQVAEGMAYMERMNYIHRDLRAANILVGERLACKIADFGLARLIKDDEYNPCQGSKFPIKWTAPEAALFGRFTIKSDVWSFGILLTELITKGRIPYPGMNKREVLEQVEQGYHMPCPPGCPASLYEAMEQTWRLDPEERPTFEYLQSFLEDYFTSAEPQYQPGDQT
T1 sequence (P07948 whole entry): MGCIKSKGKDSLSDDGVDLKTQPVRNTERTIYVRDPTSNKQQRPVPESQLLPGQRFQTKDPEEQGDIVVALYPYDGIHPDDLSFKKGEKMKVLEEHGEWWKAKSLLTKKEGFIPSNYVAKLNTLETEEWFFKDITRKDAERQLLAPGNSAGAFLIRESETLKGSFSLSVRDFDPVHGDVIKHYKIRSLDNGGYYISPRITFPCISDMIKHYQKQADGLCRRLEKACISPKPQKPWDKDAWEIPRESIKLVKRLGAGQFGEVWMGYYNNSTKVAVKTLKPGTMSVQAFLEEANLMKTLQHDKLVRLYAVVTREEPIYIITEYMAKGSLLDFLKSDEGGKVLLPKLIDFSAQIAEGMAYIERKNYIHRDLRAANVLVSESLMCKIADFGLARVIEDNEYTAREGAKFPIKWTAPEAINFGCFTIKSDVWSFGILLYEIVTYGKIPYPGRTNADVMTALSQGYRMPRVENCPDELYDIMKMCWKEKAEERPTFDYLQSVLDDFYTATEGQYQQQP
T13 sequence (P06241 whole entry): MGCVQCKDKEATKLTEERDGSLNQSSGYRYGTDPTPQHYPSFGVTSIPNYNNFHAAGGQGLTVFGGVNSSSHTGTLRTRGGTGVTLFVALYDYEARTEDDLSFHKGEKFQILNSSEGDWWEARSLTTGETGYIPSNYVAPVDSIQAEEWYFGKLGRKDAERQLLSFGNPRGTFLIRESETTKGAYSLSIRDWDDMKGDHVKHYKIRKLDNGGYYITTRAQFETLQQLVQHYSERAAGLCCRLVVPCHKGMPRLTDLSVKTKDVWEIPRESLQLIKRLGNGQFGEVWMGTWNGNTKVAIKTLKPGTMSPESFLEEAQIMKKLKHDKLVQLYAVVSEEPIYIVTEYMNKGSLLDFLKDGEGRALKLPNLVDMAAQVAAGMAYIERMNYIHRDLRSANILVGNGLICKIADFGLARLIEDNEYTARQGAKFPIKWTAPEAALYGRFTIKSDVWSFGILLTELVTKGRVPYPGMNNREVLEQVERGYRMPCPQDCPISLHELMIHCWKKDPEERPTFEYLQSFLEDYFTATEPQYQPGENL
T15 sequence (P06239 whole entry): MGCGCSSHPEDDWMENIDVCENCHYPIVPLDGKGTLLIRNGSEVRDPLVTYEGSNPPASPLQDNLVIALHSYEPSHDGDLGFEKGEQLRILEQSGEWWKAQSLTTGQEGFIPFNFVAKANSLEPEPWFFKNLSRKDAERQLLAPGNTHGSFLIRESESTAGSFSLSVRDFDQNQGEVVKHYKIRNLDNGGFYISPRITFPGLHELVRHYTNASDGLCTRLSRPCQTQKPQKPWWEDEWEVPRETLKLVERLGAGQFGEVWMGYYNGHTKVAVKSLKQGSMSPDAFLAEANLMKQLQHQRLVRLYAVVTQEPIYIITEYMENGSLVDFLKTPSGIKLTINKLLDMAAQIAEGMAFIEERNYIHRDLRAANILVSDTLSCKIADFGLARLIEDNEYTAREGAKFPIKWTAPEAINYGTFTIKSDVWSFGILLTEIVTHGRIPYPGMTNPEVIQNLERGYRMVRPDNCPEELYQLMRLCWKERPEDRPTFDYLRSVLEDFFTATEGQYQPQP
T11 sequence (P07332 whole entry): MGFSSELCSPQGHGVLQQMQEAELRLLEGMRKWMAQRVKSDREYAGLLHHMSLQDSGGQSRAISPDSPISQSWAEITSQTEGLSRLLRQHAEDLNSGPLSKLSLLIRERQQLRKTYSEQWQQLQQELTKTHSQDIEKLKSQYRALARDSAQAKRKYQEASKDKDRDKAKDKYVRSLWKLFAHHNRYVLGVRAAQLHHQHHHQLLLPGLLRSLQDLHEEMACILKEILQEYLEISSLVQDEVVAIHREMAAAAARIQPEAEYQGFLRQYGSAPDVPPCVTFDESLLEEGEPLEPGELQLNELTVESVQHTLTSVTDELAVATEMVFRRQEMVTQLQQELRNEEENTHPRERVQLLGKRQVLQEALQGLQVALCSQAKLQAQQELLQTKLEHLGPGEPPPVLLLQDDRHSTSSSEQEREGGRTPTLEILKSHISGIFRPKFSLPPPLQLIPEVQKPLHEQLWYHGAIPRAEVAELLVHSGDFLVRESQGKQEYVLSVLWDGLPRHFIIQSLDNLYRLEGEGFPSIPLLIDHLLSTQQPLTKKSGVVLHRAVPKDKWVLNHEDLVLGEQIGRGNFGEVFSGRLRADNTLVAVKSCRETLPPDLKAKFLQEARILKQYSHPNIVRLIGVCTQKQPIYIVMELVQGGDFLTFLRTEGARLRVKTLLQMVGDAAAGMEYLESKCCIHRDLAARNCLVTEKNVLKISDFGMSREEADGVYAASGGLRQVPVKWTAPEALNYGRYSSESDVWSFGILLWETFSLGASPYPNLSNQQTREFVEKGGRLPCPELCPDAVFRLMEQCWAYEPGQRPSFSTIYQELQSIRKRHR
T16 sequence (P00519 whole entry): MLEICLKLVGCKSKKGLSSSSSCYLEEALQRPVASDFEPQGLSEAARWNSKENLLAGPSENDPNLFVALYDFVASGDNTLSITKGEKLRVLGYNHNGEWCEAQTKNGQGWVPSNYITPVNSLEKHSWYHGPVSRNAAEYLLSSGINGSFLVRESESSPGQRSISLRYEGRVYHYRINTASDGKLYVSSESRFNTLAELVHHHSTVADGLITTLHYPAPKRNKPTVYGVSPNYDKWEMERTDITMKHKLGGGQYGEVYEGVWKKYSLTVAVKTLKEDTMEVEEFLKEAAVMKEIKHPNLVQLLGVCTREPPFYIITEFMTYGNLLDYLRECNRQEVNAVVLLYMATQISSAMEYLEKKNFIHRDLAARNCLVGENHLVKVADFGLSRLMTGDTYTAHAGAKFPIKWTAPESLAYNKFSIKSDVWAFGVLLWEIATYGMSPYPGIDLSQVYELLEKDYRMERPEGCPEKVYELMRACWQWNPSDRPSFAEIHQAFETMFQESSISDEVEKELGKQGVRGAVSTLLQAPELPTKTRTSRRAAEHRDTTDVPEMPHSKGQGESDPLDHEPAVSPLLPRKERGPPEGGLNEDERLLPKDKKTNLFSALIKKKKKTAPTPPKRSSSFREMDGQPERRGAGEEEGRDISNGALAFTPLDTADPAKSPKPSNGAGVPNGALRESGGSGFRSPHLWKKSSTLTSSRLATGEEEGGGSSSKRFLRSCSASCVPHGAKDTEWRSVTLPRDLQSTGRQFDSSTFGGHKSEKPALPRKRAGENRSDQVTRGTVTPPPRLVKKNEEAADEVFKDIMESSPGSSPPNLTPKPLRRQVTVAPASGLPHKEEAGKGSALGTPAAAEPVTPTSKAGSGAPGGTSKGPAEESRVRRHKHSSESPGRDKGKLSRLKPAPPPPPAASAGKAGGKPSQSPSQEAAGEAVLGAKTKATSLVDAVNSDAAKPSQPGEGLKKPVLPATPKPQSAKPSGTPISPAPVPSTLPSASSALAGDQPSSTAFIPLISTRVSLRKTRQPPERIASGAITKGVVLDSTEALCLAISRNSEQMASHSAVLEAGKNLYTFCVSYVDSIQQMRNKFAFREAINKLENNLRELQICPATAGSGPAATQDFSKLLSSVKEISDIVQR
T9 sequence (O43318 with tags, fused parts or gaps limits assumed): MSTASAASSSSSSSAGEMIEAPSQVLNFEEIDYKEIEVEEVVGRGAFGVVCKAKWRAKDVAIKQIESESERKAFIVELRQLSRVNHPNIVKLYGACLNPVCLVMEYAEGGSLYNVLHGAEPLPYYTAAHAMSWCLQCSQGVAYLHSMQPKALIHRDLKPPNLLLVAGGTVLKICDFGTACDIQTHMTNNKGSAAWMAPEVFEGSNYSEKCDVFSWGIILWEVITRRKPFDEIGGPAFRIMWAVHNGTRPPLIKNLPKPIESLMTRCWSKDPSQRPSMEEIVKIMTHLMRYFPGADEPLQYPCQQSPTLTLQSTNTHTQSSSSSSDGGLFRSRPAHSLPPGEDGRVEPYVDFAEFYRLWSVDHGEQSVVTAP

As a reminder, the IC50 is the point on the concentration scale where inhibition reaches its midpoint. Low values mean inhibition by little substance, high ones a need for much substance. Regarding `CCN1CCN(Cc2ccc(NC(=O)c3ccc(C)c(Oc4ncnc5cc(NC)c(OC)cc45)c3)cc2C(F)(F)F)CC1` [Compound (I-1), N-(4-((4-ethylpiperazin-1-yl)methyl)-3-(trifluoromethyl)phenyl)-3-(6-methoxy-7-(methylamino)quinazolin-4-yloxy)-4-methylbenzamide], the figures for the half-life in series [1], in series [2] and in [4] were 79.3 min, 42.4 min and 60.2 min, respectively. In addition, the IC50 against LYN A stood at 8.77 nM; against ABL2 (Arg) it was 45.5 nM; against MAP4K2 (GCK), 8.35 nM; on HCK [3] it was 7.39 nM; at FGR, 8.02 nM; at MAP4K1 (HPK1), 11.8 nM. The IC50 was determined as 61.3 nM at TAOK2 (TAO1); 413 nM at TAOK3 (JIK); 24.1 nM in [8]; 79.7 nM in [9]; 11 nM against FES (FPS); 77.5 nM against SRC. Further, the IC50 came to 419 nM against FYN; 194 nM on TAOK1; 4.73 nM against LCK; 32.3 nM on ABL1; 9.81 nM against FER. In addition, the “effect on healthy donor B- and T-cells” value in series [5] was “sparing of healthy donor B- and T-cells”. For the same compound, the apoptotic effects result in series [6] is recorded as “potent apoptotic effects”. In [7] (30 mg/kg, TMD8 xenografted rat model), the “Mean tumor volume compared to vehicle” value is “lower Mean tumor volume compared to vehicle”. The survival days in series [7] (TMD8 xenograft model, vehicle 22 survival days) was found to be 43 days. The “Pharmacodynamic inhibition of HCK, BTK, and NFκB” value with HCK, BTK, and NFκB was “inhibition of HCK, BTK, and NFκB”. Moreover, the tumor redistribution entry in the series with HCK, BTK, and NFκB is recorded as “dose-related tumor redistribution”. Moreover, the HCK inhibition entry at HCK [10] is given as “inhibits HCK in a dose dependent Type II inhibition”.

Regarding `CCN1CCN(Cc2ccc(NC(=O)c3ccc(C)c(Oc4ncnc5cc(N)c(OC)cc45)c3)cc2C(F)(F)F)CC1` [Compound (I-2), 3-(7-amino-6-methoxyquinazolin-4-yloxy)-N-(4-((4-ethylpiperazin-1-yl)methyl)-3-(trifluoromethyl)phenyl)-4-methylbenzamide], the half-life in series [2] amounted to 41.7 min.

Regarding `CCN1CCN(Cc2ccc(NC(=O)c3ccc(C)c(Oc4ncnc5cc6[nH]cnc6cc45)c3)cc2C(F)(F)F)CC1` [Compound (I-16), 3-(3H-imidazo[4,5-g]quinazolin-8-yloxy)-N-(4-((4-ethylpiperazin-1-yl)methyl)-3-(trifluoromethyl)phenyl)-4-methylbenzamide], the half-life in [2] was found to be 8.6 min.

With `COc1cc2c(Oc3cc(C(=O)Nc4cccc(C(F)(F)F)c4)ccc3C)ncnc2cc1NCCN1CCN(C)CC1` [Compound (I-4), 3-(6-methoxy-7-(2-(4-methylpiperazin-1-yl)ethylamino)quinazolin-4-yloxy)-4-methyl-N-(3-(trifluoromethyl)phenyl)benzamide], the half-life in series [2] amounted to 5.7 min.

Turning to `CCN1CCN(Cc2ccc(NC(=O)c3ccc(C)c(Oc4ncnc5cc(NC)ccc45)c3)cc2C(F)(F)F)CC1` [Compound (I-14), N-(4-((4-ethylpiperazin-1-yl)methyl)-3-(trifluoromethyl)phenyl)-4-methyl-3-(7-(methylamino)quinazolin-4-yloxy)benzamide], the half-life in [2] is 20.4 min.
